Source: patent US20110165173A1, “THERAPEUTIC AGENT AND DETECTION REAGENT FOR ARTERIOSCLEROTIC DISEASE WHICH TARGETS FOR SALUSIN” (PROTEINEXPRESS CO., LTD., priority 2007, published 2011)

Tests used:
[1] = tested on: ABCA1; assay: ABCA1 expression by macrophages of treated apoE-deficient mice (Western blotting); assay type: in vivo; details: 0.6 nmol/kg/h, four weeks; range given jointly for ABCA1, ABCG1, SR-BI; P<0.05
Protocol: (§1) 13-week-old male apoE-deficient mice (72 mice) were divided into the following 6 groups: (i) physiological salt saline (control); (ii) salusin-α (0.6 nmol/kg/h); (iii) salusin-β (0.6 nmol/kg/h); (iv) salusin-α (0.6 nmol/kg/h)+anti-salusin-α serum (1.4 μg/kg/h); (v) salusin-β (0.6 nmol/kg/h)+anti-salusin-β serum (1.4 μg/kg/h); and (vi) anti-salusin-β serum (1.4 μg/kg/h). The mice were subjected to continuous subcutaneous administration with the use of an osmotic mini-pump for 4 to 8 weeks. The osmotic mini-pump and the solution contained therein were changed every week.
(§2) Macrophages were collected as in the experiment in (1), and the protein expression of the gene involved in foaming of macrophages (i.e., scavenger receptors CD36 and SR-A capable of recognizing oxidized LDL, intracellular cholesterol esterification enzyme ACAT1, and ABCA1, ABCG1, and SR-BI, which are involved in cholesterol efflux) was analyzed by Western blotting. For the internal standard of the macrophage function, β-actin expression was also examined. For quantification of the band concentration, Analyzer (ATTO Corporation, Tokyo) was used.

[2] = tested on: ABCG1; assay: ABCG1 expression by macrophages of treated apoE-deficient mice (Western blotting); assay type: in vivo; details: 0.6 nmol/kg/h, four weeks; range given jointly for ABCA1, ABCG1, SR-BI; P<0.05
Protocol: as §1, §2

[3] = tested on: ACAT activity; assay: ACAT activity assay by liposome reconstitution method in human monocyte-derived macrophages; assay type: cell-based; details: 0.6 nM during 7-day culture
Excerpt: For ACAT activity assay, the liposome reconstitution method was used. This method involves the use of a system in which the ACAT-1 protein present in the endoplasmic reticulum is reconstituted into liposomes with the use of mixed micelles comprising cholesterol/phosphatidylcholine, thereby achieving a saturated concentration level of cholesterol that can be used as an ACAT-1 substrate [Cheng D et al., J Biol Chem. 1995; 270: 685-695.]. In the case of the conventionally used microsome method, cholesterol that endogenously exists in the endoplasmic reticulum has been used as a substrate. However, in general, the endoplasmic reticulum membrane is poor in cholesterol. Therefore, it is thought that the saturated level of cholesterol capable of serving as an ACAT substrate has not been achieved, resulting in underestimation of ACAT activity. Herein, ACAT activity was assayed by adding another substrate, [^14C]oleoyl-CoA, to a reaction system and assaying the cholesterol [^14C]oleate generated through the ACAT reaction (FIG. 4).
Peripheral blood human monocytes (4×10^6 cells/2 mL) were seeded on 4 to 6 6-cm dishes and cultured for 7 days so as to differentiate into macrophages. At such time, salusin-α or salusin-β was added during culture. […] The protein concentration of the homogenized cell extraction solution was quantitatively assayed by the BCA method (Pierce). […]

[4] = tested on: macrophages of apoE-deficient mice; assay: Cholesterol efflux caused by HDL in macrophages collected from treated apoE-deficient mice; assay type: in vivo; details: 0.6 nmol/kg/h, four weeks; P<0.01
Protocol: as §1
Macrophages collected in the above manner were kept warm for 24 hours in a culture solution prepared as above containing oxidized LDL (10 μg/ml) labeled with [^3H]cholesterol (74 kBq/mL) and washed twice with PBS. Thereafter, the macrophages were kept warm for 16 hours in an RPMI1640 solution containing 0.1% BSA to which HDL (15 μg/mL) had been added. The culture solution was centrifuged at 15,000 rpm for 10 minutes so as to remove the residues therefrom. […] The radioactivity of [^3H]cholesterol in the culture solution and that in the cell extraction solution were assayed: cholesterol efflux (%)=the radioactivity of [^3H]cholesterol in the culture solution/the radioactivity of [^3H]cholesterol in the culture solution+the radioactivity of [^3H]cholesterol in the cell extraction solution×100

[5] = tested on: SR-BI; assay: SR-BI expression by macrophages of treated apoE-deficient mice (Western blotting); assay type: in vivo; details: 0.6 nmol/kg/h, four weeks; range given jointly for ABCA1, ABCG1, SR-BI; P<0.05
Protocol: as §1, §2

Substance	ABCA1 protein expression relative to initial level [1]	ABCG1 protein expression relative to initial level [2]	ACAT activity, percent of that of the control [3]	cholesterol efflux caused by HDL relative to control [4]	SR-BI protein expression relative to initial level [5]	ACAT activity relative to control [3]
salusin-α: peptide (SEQ ID NO: 1) comprising 28 amino acid residues, generated by processing from preprosalusin (SGALPPAPAAPRPALRAQRAGPAGPGAK; listed as Homo sapiens)	1.5 to 2 times	1.5 to 2 times	50%	approximately 2 times	1.5 to 2 times	–
salusin-β: peptide (SEQ ID NO: 3) comprising 20 amino acid residues, generated by processing from preprosalusin (AIFIFIRWLLKLGHHGRAPP; listed as Homo sapiens) [reference compound]	–	–	–	–	–	1.8 times
